Patent publication US20250129078A1, “ERBB2 INHIBITORS” (Cogent Biosciences, Inc., priority 2023, published 2025)
Structures can show the parent of a compound that is named as a salt. Where two headings read alike, the source gives them in different places.

Experiments:
ErbB2 V777L = ErbB2 V777L (Homo sapiens (Human), UniProt P04626, V777L); test: ErbB enzyme assay (CisBio HTRF-KinEASE-TK), ErbB2 V777L; assay type: biochemical
Experimental: In vitro enzyme assays based on CisBio HTRF-KinEASE-TK technology were used to determine compound potencies. […] After another 1 h incubation at ambient temperature, the extent of substrate phosphorylation was determined using a PerkinElmer EnVision multimode plate reader via time-resolved fluorescence dual wavelength detection. The percent of control (POC) was calculated using the ratio of emission at […] to the emission at 620 nm. One hundred POC was determined using DMSO only controls (no test compounds present) and zero POC was determined using pre-quenched controls reactions. A 4-parameter logistic equation was fit to the POC values as a function of the test compound concentration and the IC50 value was determined as the point where the curve crossed 50 POC.

EGFR WT = EGFR WT (Homo sapiens (Human), UniProt P00533); test: ErbB enzyme assay (CisBio HTRF-KinEASE-TK), EGFR WT; assay type: biochemical; details: ATP at Km (25 μM), 1 h incubation
Sequence of EGFR WT (P00533 25-1210): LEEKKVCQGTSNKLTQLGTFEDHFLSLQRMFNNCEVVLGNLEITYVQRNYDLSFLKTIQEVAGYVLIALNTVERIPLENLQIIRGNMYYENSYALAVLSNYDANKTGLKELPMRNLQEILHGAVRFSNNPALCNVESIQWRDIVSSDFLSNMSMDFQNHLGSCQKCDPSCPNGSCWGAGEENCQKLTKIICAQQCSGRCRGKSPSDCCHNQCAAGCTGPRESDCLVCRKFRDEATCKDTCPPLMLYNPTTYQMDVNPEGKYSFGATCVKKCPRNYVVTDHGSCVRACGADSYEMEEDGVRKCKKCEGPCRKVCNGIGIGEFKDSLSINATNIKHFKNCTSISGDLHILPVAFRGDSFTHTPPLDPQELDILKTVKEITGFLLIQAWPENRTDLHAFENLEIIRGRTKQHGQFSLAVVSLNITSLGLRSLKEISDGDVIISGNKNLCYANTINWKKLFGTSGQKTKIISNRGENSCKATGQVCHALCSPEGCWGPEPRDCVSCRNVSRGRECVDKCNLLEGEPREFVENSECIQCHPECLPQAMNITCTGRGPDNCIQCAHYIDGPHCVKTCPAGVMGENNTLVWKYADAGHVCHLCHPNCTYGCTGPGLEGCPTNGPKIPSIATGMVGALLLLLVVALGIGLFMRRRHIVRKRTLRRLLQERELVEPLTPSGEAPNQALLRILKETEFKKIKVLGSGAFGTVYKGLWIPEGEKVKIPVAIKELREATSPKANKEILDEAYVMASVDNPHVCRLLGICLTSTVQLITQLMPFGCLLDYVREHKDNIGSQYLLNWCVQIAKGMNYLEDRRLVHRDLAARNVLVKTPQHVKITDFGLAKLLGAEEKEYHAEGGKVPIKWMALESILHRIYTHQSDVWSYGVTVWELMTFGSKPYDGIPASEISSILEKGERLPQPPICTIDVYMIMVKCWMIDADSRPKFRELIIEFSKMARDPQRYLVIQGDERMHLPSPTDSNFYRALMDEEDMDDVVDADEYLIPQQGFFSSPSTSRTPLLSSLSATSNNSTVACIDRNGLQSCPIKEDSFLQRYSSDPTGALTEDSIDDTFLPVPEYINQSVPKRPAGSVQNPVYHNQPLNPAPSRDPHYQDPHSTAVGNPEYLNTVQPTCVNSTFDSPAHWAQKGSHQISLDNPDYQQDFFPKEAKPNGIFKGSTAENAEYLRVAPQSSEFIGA
Summary of the method: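 IC50 comes from a 4-parameter fit where the curve crosses 50 percent of control, using the 655/620 nm time-resolved fluorescence ratio with DMSO-only and pre-quenched references. Kinase reactions ran 1 h at ambient temperature before Sa-XL665/cryptate-antibody detection (1 h).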

Sequence of ErbB2 V777L (P04626 23-1255 V777L): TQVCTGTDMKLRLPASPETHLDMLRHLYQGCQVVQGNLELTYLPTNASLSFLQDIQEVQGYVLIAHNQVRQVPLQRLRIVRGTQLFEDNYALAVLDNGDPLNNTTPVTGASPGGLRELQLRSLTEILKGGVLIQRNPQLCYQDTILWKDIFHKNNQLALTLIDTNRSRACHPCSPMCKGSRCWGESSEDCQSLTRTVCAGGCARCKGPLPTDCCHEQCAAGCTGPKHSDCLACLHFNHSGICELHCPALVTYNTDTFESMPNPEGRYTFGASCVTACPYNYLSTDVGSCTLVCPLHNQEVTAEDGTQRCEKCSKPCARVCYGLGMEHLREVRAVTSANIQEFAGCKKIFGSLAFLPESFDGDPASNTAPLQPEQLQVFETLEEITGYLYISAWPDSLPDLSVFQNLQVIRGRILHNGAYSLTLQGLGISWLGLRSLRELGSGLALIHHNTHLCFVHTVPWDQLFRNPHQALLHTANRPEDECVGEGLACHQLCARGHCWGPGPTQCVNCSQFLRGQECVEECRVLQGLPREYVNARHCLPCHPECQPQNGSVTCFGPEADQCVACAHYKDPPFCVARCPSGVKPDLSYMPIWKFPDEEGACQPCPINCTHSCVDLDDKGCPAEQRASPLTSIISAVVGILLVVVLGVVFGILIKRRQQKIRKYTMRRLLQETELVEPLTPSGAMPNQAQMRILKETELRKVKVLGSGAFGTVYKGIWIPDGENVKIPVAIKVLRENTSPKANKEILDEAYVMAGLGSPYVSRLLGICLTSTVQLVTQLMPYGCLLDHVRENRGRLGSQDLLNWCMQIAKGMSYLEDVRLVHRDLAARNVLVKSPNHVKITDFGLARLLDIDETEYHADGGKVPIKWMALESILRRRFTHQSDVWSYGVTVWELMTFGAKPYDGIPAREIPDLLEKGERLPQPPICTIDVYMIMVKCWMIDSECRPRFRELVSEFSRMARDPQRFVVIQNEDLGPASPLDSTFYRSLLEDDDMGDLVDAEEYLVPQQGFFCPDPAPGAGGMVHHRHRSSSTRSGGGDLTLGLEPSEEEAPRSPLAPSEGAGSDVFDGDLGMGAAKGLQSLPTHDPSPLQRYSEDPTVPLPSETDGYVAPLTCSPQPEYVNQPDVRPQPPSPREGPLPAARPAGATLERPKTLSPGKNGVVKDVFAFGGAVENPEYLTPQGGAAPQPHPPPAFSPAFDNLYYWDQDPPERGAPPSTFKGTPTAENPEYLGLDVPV

Row | SMILES | IC50 (ErbB2 V777L) [nM] | IC50 (EGFR WT) [nM] | IC50 (ErbB2 V777L; ErbB2 V777L enzyme, ATP at Km (110 μM), 1 h incubation) [nM]
1 | C=CC(=O)N1CCCN(c2ncc3ncnc(Nc4ccc(Oc5ccc6c(c5)ncn6C)c(C)c4)c3n2)C[C@H]1C [Compound 143, (R)-1-(2-methyl-4-(8-((3-methyl-4-((1-methyl-1H-benzo[d]imidazol-5-yl)oxy)phenyl)amino)pyrimido[5,4-d]pyrimidin-2-yl)-1,4-diazepan-1-yl)prop-2-en-1-one] | 100 to 500 | ≥ 1000 | –
2 | C=CC(=O)N[C@H]1CCCCN(c2ccc3ncnc(Nc4ccc(Oc5ccc6c(c5)nnn6C)c(C)c4F)c3n2)C1 [Compound 291, (S)-N-(1-(4-((2-fluoro-3-methyl-4-((1-methyl-1H-benzo[d][1,2,3]triazol-5-yl)oxy)phenyl)amino)pyrido[3,2-d]pyrimidin-6-yl)azepan-3-yl)acrylamide] | 50 to 100 | 100 to 500 | –
3 | C=CC(=O)N1C2CCC1CC(c1ccc3ncnc(Nc4ccc(Oc5ccc6c(c5)nnn6C)c(C)c4)c3n1)C2 (centres unmarked) [Compound 397, 1-(3-(4-((3-methyl-4-((1-methyl-1H-benzo[d][1,2,3]triazol-5-yl)oxy)phenyl)amino)pyrido[3,2-d]pyrimidin-6-y1)-8-azabicyclo[3.2.1]octan-8-yl)prop-2-en-1-one trifluoroacetate] | 100 to 500 | 500 to 1000 | –
4 | C=CC(=O)N[C@H]1[C@@H]2CC[C@H]1CN(c1ncc3ncnc(Nc4ccc(Oc5ccc6c(c5)nnn6C)c(C)c4)c3n1)C2 [Compound 205, N-((1R,5S,8r)-3-(8-((3-methyl-4-((1-methyl-1H-benzo[d][1,2,3]triazol-5-yl)oxy)phenyl)amino)pyrimido[5,4-d]pyrimidin-2-yl)-3-azabicyclo[3.2.1]octan-8-yl)acrylamide] | ≥ 1000 | ≥ 1000 | –
5 | C=CC(=O)N1CC[C@H]2CN(c3ncc4ncnc(Nc5ccc(Oc6ccc7c(c6)nnn7C)c(C)c5)c4n3)C[C@H]21 [Compound 149, 1-((3aS,6aS)-5-(8-((3-methyl-4-((1-methyl-1H-benzo[d][1,2,3]triazol-5-yl)oxy)phenyl)amino)pyrimido [5,4-d]pyrimidin-2-yl)hexahydropyrrolo[3,4-b]pyrrol-1(2H)-y1)prop-2-en-1-one] | 100 to 500 | 500 to 1000 | –
6 | C=CC(=O)N1CCN(c2ncc3ncnc(Nc4cc(C)c(Oc5ccc6c(c5)nnn6C)c(F)c4)c3n2)C[C@H]1C [Compound 155, (R)-1-(4-(8-((3-fluoro-5-methyl-4-((1-methyl-1H-benzo[d][1,2,3]triazol-5-yl)oxy)phenyl)amino)pyrimido[5,4-d]pyrimidin-2-y1)-2-methylpiperazin-1-yl)prop-2-en-1-one] | 100 to 500 | 500 to 1000 | –
7 | C=CC(=O)N1CCN(c2ncc3ncnc(Nc4ccc(Oc5ccc6c(nnn6C)c5F)c(C)c4)c3n2)CC1 [Compound 191, 1-(4-(8-((4-((4-fluoro-1-methyl-1H-benzo[d][1,2,3]triazol-5-yl)oxy)-3-methylphenyl)amino)pyrimido[5,4-d]pyrimidin-2-yl)piperazin-1-yl)prop-2-en-1-one] | 50 to 100 | 50 to 100 | –
8 | C=CC(=O)N(C)[C@H]1C[C@H](Oc2ncc3ncnc(Nc4ccc(Oc5ccc6c(c5)ncn6C)c(C)c4)c3n2)C1 [Compound 382, N-methyl-N-((1r,3r)-3-((8-((3-methyl-4-((1-methyl-1H-benzo[d]imidazol-5-yl)oxy)phenyl)amino)pyrimido[5,4-d]pyrimidin-2-yl)oxy)cyclobutyl)acrylamide] | 50 to 100 | ≥ 1000 | –
9 | C=CC(=O)N1CCC[C@H](N(C)c2ncc3ncnc(Nc4ccc(Oc5ccc6c(c5)nnn6C)c(C)c4)c3n2)C1 [Compound 224, (S)-1-(3-(methyl(8-((3-methyl-4-((1-methyl-1H-benzo[d][1,2,3]triazol-5-yl)oxy)phenyl)amino)pyrimido[5,4-d]pyrimidin-2-yl)amino)piperidin-1-yl)prop-2-en-1-one] | 50 to 100 | 100 to 500 | –
10 | C=CC(=O)N1CC[C@@H]2CN(c3ncc4ncnc(Nc5ccc(Oc6ccc7c(c6)nnn7C)c(C)c5)c4n3)C[C@@H]21 [Compound 150, 1-((3aR,6aR)-5-(8-((3-methyl-4-((1-methyl-1H-benzo[d][1,2,3]triazol-5-yl)oxy)phenyl)amino)pyrimido[5,4-d]pyrimidin-2-yl)hexahydropyrrolo[3,4-b]pyrrol-1(2H)-yl)prop-2-en-1-one] | 100 to 500 | 500 to 1000 | –
11 | C=C(COC)C(=O)N1CCN(c2ccc3ncnc(Nc4ccc(Oc5ccc6c(c5)nnn6C)c(C)c4)c3n2)CC1 [Compound 366, 2-(methoxymethyl)-1-(4-(4-((3-methyl-4-((1-methyl-1H-benzo[d][1,2,3]triazol-5-yl)oxy)phenyl)amino)pyrido[3,2-d]pyrimidin-6-yl)piperazin-1-yl)prop-2-en-1-one] | 500 to 1000 | ≥ 1000 | –
12 | C=CC(=O)N(C)[C@H]1C[C@@H](Oc2ncc3ncnc(Nc4ccc(Oc5cc(F)c6c(c5)ncn6C)c(C)c4)c3n2)C1 [Compound 387, N-((1s,3s)-3-((8-((4-((7-fluoro-1-methyl-1H-benzo[d]imidazol-5-yl)oxy)-3-methylphenyl)amino)pyrimido[5,4-d]pyrimidin-2-yl)oxy)cyclobutyl)-N-methylacrylamide] | 50 to 100 | 100 to 500 | –
13 | C=CC(=O)N1CCN(c2ccc3ncnc(Nc4cc(F)c(Oc5ccc6c(c5)nnn6C)c(C)c4F)c3n2)CC1(C)C [Compound 327, 1-(4-(4-((2,5-difluoro-3-methyl-4-((1-methyl-1H-benzo[d][1,2,3]triazol-5-yl)oxy)phenyl)amino)pyrido[3,2-d]pyrimidin-6-yl)-2,2-dimethylpiperazin-1-yl)prop-2-en-1-one] | 100 to 500 | 100 to 500 | –

Now from value to molecule:

Row | IC50 (ErbB2 V777L) [nM] | IC50 (EGFR WT) [nM] | IC50 (ErbB2 V777L; ErbB2 V777L enzyme, ATP at Km (110 μM), 1 h incubation) [nM] | SMILES
14 | – | 100 to 500 | 50 to 100 | C=CC(=O)N1CCN(c2ccc3ncnc(Nc4cc(C)c(Oc5ccc6c(c5)nnn6C)cc4OC)c3n2)C[C@H]1C [Compound 316, (R)-1-(4-(4-((2-methoxy-5-methyl-4-((1-methyl-1H-benzo[d][1,2,3]triazol-5-yl)oxy)phenyl)amino)pyrido[3,2-d]pyrimidin-6-y1)-2-methylpiperazin-1-yl)prop-2-en-1-one]
15 | 50 to 100 | 100 to 500 | – | C=CC(=O)N[C@@H]1CCCN(c2ccc3ncnc(Nc4ccc(Oc5ccc6c(c5)nnn6C)c(C)c4F)c3n2)[C@H]1C (single isomer, unassigned) [Compound 349]
16 | 100 to 500 | 100 to 500 | – | C=CC(=O)N1CCN(c2ccc3ncnc(Nc4ccc(Oc5ccc6c(c5)nnn6C)c(C)c4F)c3n2)C[C@H]1CC [Compound 258, (R)-1-(2-ethyl-4-(4-((2-fluoro-3-methyl-4-((1-methyl-1H-benzo[d][1,2,3]triazol-5-yl)oxy)phenyl)amino)pyrido[3,2-d]pyrimidin-6-yl)piperazin-1-yl)prop-2-en-1-one]
17 | 500 to 1000 | 100 to 500 | – | C=CC(=O)N1CCN(c2ncc3ncnc(Nc4ccc(Oc5cc6nnn(C)c6c(F)c5C)c(C)c4F)c3n2)C[C@H]1C [Compound 176, (R)-1-(4-(8-((2-fluoro-4-((7-fluoro-1,6-dimethyl-1H-benzo[d][1,2,3]triazol-5-yl)oxy)-3-methylphenyl)amino)pyrimido[5,4-d]pyrimidin-2-yl)-2-methylpiperazin-1-yl)prop-2-en-1-one]
18 | 50 to 100 | 100 to 500 | – | C=CC(=O)N[C@@H]1[C@@H]2CC[C@H]1CN(c1ncc3ncnc(Nc4ccc(Oc5ccc6c(c5)nnn6C)c(C)c4)c3n1)C2 [Compound 206, N-((1R,5S,8s)-3-(8-((3-methyl-4-((1-methyl-1H-benzo[d][1,2,3]triazol-5-yl)oxy)phenyl)amino)pyrimido[5,4-d]pyrimidin-2-yl)-3-azabicyclo[3.2.1]octan-8-yl)acrylamide]
19 | 100 to 500 | 500 to 1000 | – | C=CC(=O)N1CCN(c2ncc3ncnc(Nc4ccc(Oc5ccc6c(c5)nnn6C)c(C)c4)c3c2F)CC1 [Compound 102, 1-(4-(5-fluoro-4-((3-methyl-4-((1-methyl-1H-benzo[d][1,2,3]triazol-5-yl)oxy)phenyl)amino)pyrido[3,4-d]pyrimidin-6-yl)piperazin-1-yl)prop-2-en-1-one]
20 | 100 to 500 | 500 to 1000 | – | C=CC(=O)N1CCN(c2ccc3ncnc(Nc4ccc(Oc5ccc6c(c5)nnn6C)c(C)c4)c3n2)C[C@@H]1C1CC1 [Compound 250, (S)-1-(2-cyclopropyl-4-(4-((3-methyl-4-((1-methyl-1H-benzo[d][1,2,3]triazol-5-yl)oxy)phenyl)amino)pyrido[3,2-d]pyrimidin-6-yl)piperazin-1-yl)prop-2-en-1-one]
21 | 100 to 500 | 100 to 500 | – | C=CC(=O)N[C@H]1CN(c2ccc3ncnc(Nc4ccc(Oc5ccc6c(c5)nnn6C)c(C)c4F)c3n2)CC[C@@H]1F [Compound 296, N-((3S,4S)-4-fluoro-1-(4-((2-fluoro-3-methyl-4-((1-methyl-1H-benzo[d][1,2,3]triazol-5-yl)oxy)phenyl)amino)pyrido[3,2-d]pyrimidin-6-yl)piperidin-3-yl)acrylamide]
22 | 100 to 500 | 100 to 500 | – | C=CC(=O)N1CCN(c2ccc3ncnc(Nc4c(OC)cc(Oc5ccc6c(c5)nnn6C)c(C)c4F)c3n2)CC1 [Compound 251, 1-(4-(4-((2-fluoro-6-methoxy-3-methyl-4-((1-methyl-1H-benzo[d][1,2,3]triazol-5-yl)oxy)phenyl)amino)pyrido[3,2-d]pyrimidin-6-yl)piperazin-1-yl)prop-2-en-1-one]
